Series [1] in a line: Freeze-thaw cycle accelerated method for predicting precipitation (height of precipitate in tube). Type of series: physicochemical. As to conditions: for Effectiveness to inhibit precipitation: 63 mmol in 150 mL (420 mM), five freeze-thaw cycles; for Effectiveness as precipitation inhibitor compared with malic acid: 31 mmol in 150 mL (210 mM). The method, then:
A picosulfate formulation containing sodium picosulfate (10 mg), magnesium oxide (3.5 g), citric acid (12 g), and KHCO3 (0.65 g) and, optionally, a precipitation inhibitor (or combination of inhibitors) to be tested, dissolved in water (150 mL) is prepared. The pH is adjusted to the range 4.7-5.1 using aq. NaOH and aq. HCl solutions. The solution is filtered through a 0.22 μm PTFE filter under vacuum.
Two portions of 10 mL of the formulation test solution are placed in tapered, graduated, centrifuge tubes (15 mL) and subjected to five freeze-thaw cycles in which the solutions are frozen at −20° C. for at least 12 h and then thawed at 20-25° C. for 8 h. At the end of each cycle, the tube is inspected for precipitation at the bottom of the tube. If precipitation is present, the amount of precipitate is quantitated by measuring the height (in mm) of the precipitate in the centrifuge tube using a ruler.
The amount of precipitate (if any) is quantitated by measuring the height (in mm) of the precipitate in the centrifuge tube using a ruler at the end of each freeze thaw cycle.
If a polymer is included in the formulation, the polymer (75-150 mg) is dissolved in water (150 mL) until a clear solution (containing the polymer at a concentration of […]) is formed. A sachet of PREPOPIK® sodium picosulfate/magnesium citrate granules (containing sodium picosulfate (10 mg), magnesium oxide (3.5 g), citric acid (12 g), KHCO3 (0.65 g), Na-saccharin and orange flavoring) is added. A carboxylic acid (31-63 mmol) is added, and the pH is adjusted to the range 4.7-5.1 using aq. NaOH and aq. HCl solutions. The solution is filtered through a 0.22 μm PTFE filter under vacuum.

The nature of series [2]: Time to precipitation on storage under ambient conditions (20-25 °C). It counts as physicochemical. To be noted: Table 3 data; 0.42 M. How it is done:
A liquid formulation containing sodium picosulfate and magnesium citrate was prepared by dissolving a sachet of commercially available PREPOPIK® containing sodium picosulfate (10 mg), magnesium oxide (3.5 g), citric acid (12 g), KHCO3 (0.65 g), and orange or berry flavoring in water (150 mL). The solution is stored under ambient conditions and observed periodically until precipitation from the solution is noted.
A liquid formulation containing sodium picosulfate and magnesium citrate stabilized with malic acid was prepared using the ingredients listed in Table 1. The solution is stored under ambient conditions and observed periodically for precipitation from the solution. No precipitation is observed within 340 days.
As a reference, commercially available sodium picosulfate/magnesium oxide/citric acid (PICOSOLUTION™, Pharmbio Co., Ltd.) is also stored under ambient conditions and observed periodically for precipitation from the solution. No precipitation is observed within 645 days.
The remainder of the formulation test solution may be stored at ambient temperature (e.g., 20-25° C.) to determine the stability under non-accelerated conditions.
Samples of each of the solutions are also stored at ambient temperature (20-25° C.) and monitored for the appearance of precipitation. […]

“Also recorded” adds a separate entry of the source. Some results are limits rather than exact numbers.

In the case of `O=C(O)CC(O)C(=O)O` (stereo not drawn) [malic acid], the “Effectiveness to inhibit precipitation” value in series [1] is listed as “very effective; also recorded: effective to inhibit precipitation”. Also, the “Concentration of malic acid needed for prolonged stability” value in series [2] is reported as ≥ 63 mmol per 150 mL.
Regarding `O=C(O)CC(=O)O` [malonic acid], in series [1], the “Effectiveness as precipitation inhibitor compared with malic acid” value is recorded as “more effective as a precipitation inhibitor than malic acid” and the “Effectiveness to inhibit precipitation” value was “very effective; also recorded: effective to inhibit precipitation”.
As for `O=C(O)C(O)C(O)C(=O)O` (stereo not drawn) [tartaric acid], in series [1], the “Effectiveness as precipitation inhibitor compared with malic acid” value is reported as “of comparable effectiveness” and the “Effectiveness to inhibit precipitation” value is reported as “very effective; also recorded: effective to inhibit precipitation”.

The values above are taken from US11612592B2, “Liquid formulations containing picosulfate and magnesium citrate” (FERRING B.V., priority 2015, dated 2023).
